Reference: paper PMC9602792, “Preclinical evaluation of the epithelial sodium channel inhibitor AZD5634 and implications on human translation” (American Journal of Physiology - Lung Cellular and …, 2022)

Tested on: healthy sheep
Assay: Mucociliary clearance (99mTc-sulfur colloid) in healthy sheep after nebulized drug
Assay type: in vivo
Description: Twenty-one adult female Florida native sheep (37–54 kg, Fair Meadow Sheep) were used in the present study, once or twice with a washout of at least 1 wk between experiments. Animals were restrained in an upright position in a specialized body harness in modified carts. The head of the animal was immobilized, and after local anesthesia of the nasal passage was induced with 2% lidocaine, the animals were nasally intubated with a standard endotracheal tube (7.5 mm diameter, Mallinckrodt, St. Louis, MO). A flexible bronchoscope was used to guide the tube and verify its position in the trachea. After intubation, the animals were allowed to rest for ∼20 min before administration of any agent.
Nebulized drug or placebo was given as an aerosol where 3 mL volume (compound in 10% EtOH:90% saline) was delivered at a tidal volume of 300 mL. To maximize central deposition in the airways, a dosimeter was used to deliver the compound. The nebulizer was connected to the dosimeter system consisting of a solenoid valve and a source of compressed air (20 psi). The output of the nebulizer was connected to a T-piece, with one end attached to a respirator (Harvard Apparatus Inc., Holliston, MA). The system was activated for 1 s at the onset of the inspiratory cycle of the respirator, which was set at an inspiratory/expiratory ratio of 1:1 and a rate of 20 breaths/min. To evaluate the effect of repeated dosing, AZD5634 was given twice daily for 4 days and MCC was measured 8 h after the 7th dose.
MCC rate was measured by means of aerosolized technetium-labeled sulfur colloid (^99mTC-SC) and nebulized via the same dosimeter system as for the drug administration. […] Aerosol ^99mTC-SC was generated using an Air Life nebulizer (CareFusion, Yorba Linda, CA). Approximately 20 mCi of ^99mTC-SC in a total of 2 mL of sterile saline was placed in the nebulizer. A tidal volume of 500 mL was used to deliver the ^99mTC-SC over 3 min.
Blood was kept on ice until centrifuged (4,000 g, 5 min, 4°C) and plasma (approximately 2 mL) was transferred to two Eppendorf tubes per sample and frozen at −20°C until analyzed. Sodium and potassium concentrations were analyzed at Mount Sinai Medical Center immediately after sampling and before centrifugation (IRMA TruPoint Analysis System). The plasma samples for analysis of drug concentration were shipped on dry ice to AstraZeneca R&D, Mölndal, Gothenburg and analyzed by means of LC-MSMS (001–04 Method for Blood Plasma Analysis).
Rat electrolyte data were analyzed by means of repeated-measures ANCOVA (SAS v.9).

Question: Which “MCC effect after repeated administration” value (3 μg/kg bid for 4 days (7 doses), MCC 8 h after 7th dose) does the source give for AZD5634 here?
Answer: effect magnitude was maintained compared with single-dose studies

Question: What about the “duration of MCC effect” value (12 μg/kg given 0, 4, 8, 12, 24 h before 99mTc) of the same substance?
Answer: retained for 8 h, with approximately half left at 12 h and another half of the remaining effect gone by 24 h

Question: What about the “dose giving max effect on MCC” value (dose-response 1–330 µg/kg, healthy sheep) of the same substance?
Answer: 0.12 mg/kg

Question: And the dose giving max efficacy on MCC (dose-response, healthy sheep)?
Answer: 0.12 mg/kg

Question: And the “effect on MCC” value (nebulized 1–330 µg/kg, given just before 99mTc)?
Answer: dose-dependent effect on MCC

Question: What about the “peak effect on mucus clearance (augmentation)” value (normal sheep in vivo) of the same substance?
Answer: 30%
